What all share (format): subcellular
In test [1] the test system is Liposome. The test can be described thus: The compound was evaluated for percent incorporation in DOPC vesicles, when compound to lipid mol ratio is 3.5.
The subject of test [2] is Liposome. The test can be described thus: The compound was evaluated for percent incorporation in DOPC vesicles, when compound to lipid mol ratio is 0.1.
Test [3] has as its system Liposome. The test can be described thus: The compound was evaluated for percent incorporation in DOPC vesicles, when compound to lipid mol ratio is 2.

`CSc1ccc(/C=C2/C(C)=C(CC(=O)O)c3cc(F)ccc32)cc1`: the Incorporation with Liposome [1] was 25%; with Liposome [2], 74%; in the test on Liposome [3] it was 41%.

On to `CC1=C(CC(=O)O)c2cc(F)ccc2/C1=C\c1ccc([S+](C)[O-])cc1` (stereo not given), for which the results for the Incorporation in the test on Liposome [2] and in the test with Liposome [3] were 7% and 5%, respectively.
